Data set [1] can be described thus: Plasma chemistry markers after 21 daily doses of OPLS. Type of data set: in vivo, rhesus macaques. The note with it: 21 daily doses of 25 mg/kg, days 0, 8, 22. The protocol: FIG. 24. Effect of 21 daily doses of 25 mg/kg OPLS on plasma chemistry markers of rhesus macaques. Samples were drawn from the animals at baseline (day 0), at an intermediate time point during treatment (day 8) and 1 day after the termination of dosing (day 22).

The next data set has as its target T1, OVA (Gallus gallus, UniProt P01012).
T1 construct: purchased Sigma (St. Louis, Mo.)
As to the kind of experiment: Binding of OPLS to OVA by fluorescence spectroscopy. The protocol: The binding of OPLS to several therapeutic proteins was evaluated using fluorescence spectroscopy (FIG. 2).

A short description of data set [2]: Plasma creatine kinase and injection site after 28 daily s.c. injections of OPLS. Type of data set: in vivo, CD-1 mice. The text has this:
FIG. 22. Plasma Creatine Kinase (CK: an enzyme with high expression in myocytes, elevation of plasma CK is an indication of damage to muscle tissue) activity levels after 28 daily s.c. injections of OPLS to CD-1 mice.

For another data set, the system named is anti-FVIII total titers. Description: OPLS-FVIII sequential administration study. The note with it: 5 mg OPLS then 1 μg FVIII 5 minutes later, same site, 4 weekly sc; 4 weekly iv rechallenge. Type of data set: in vivo, Hemophilia A mice. The procedure:
To determine if OPLS can exert its immunomodulatory effects on the immune response to FVIII when the two are administered in separate injections temporally spaced apart, at the same injection site the following experiments were carried out. Hemophilia A mice (n=6 animals/group) were immunized with 4 weekly sc injections as follows. The control group of animals received one injection of sterile TRIS buffer (100 μL volume) then, after a 5 minute wait, they received a second injection of 1 μg FVIII in sterile TRIS (100 μL volume) at the same injection site. The second group of mice received one injection of 5 mg OPLS (100 μL volume) then, after a 5 minute wait, they received a second injection of 1 μg FVIII in sterile TRIS (100 μL volume) at the same injection site. After a two-week rest period (week 6) all of the mice were then rechallenged with 4 weekly intravenous injections of 1 μg of FVIII in 100 μL sterile TRIS […]. Mice were sacrificed after two weeks and a terminal blood sample was collected using cardiac puncture. Analysis was done by ELISA for total titers. […] This administration method was able to induce a hypo-responsiveness towards FVIII.

In a further data set the test system is anti-IgG antibody titers. Description: Effect of OPLS on human IgG immunogenicity. Type of data set: in vivo, mice. Particulars: 0.4 mg OPLS with 1 μg human IgG s.c., days 1, 8, 10, 12. The procedure:
Materials and Methods: 8 animals were used for this pilot study, 4 animals were injected with Human-IgG (Sigma) alone (1 μg) or with Human IgG plus OPLS (1 μg human IgG plus 0.4 mg OPLS). The study was done with 4 injections over 2 weeks period as follows: day 1, day 8, day 10 and day 12 followed by a 3 days washout period. ELISA was done to measure total titers. Briefly, Nunc-Maxisorb 96-well plates were coated overnight at 4° C. with 50 μl/well of 2.5 μg/ml Human IgG. Plates were then washed and blocked with 1% bovine serum albumin (blocking buffer). 50 μl/well of various dilutions of the sample were added to the plate and incubated at room temperature for 2 h. Plasma samples from animals exposes to a sham treatment (buffer only) served as controls. The plates were then washed and incubated with 50 μl of goat anti-mouse anti-body-HRP conjugate at a 1:50000 dilution in blocking buffer at room temperature for 1 h. Color was developed for 20 min with 100 μl of TMB solution. 100 μl of 2 N H2SO4 was used to stop the reaction. Optical density at […] was measured using a plate reader. Non-responders were given the value of the plate specific factor for uniformity.
In this pilot study, animals were injected with Human-IgG (Sigma) alone (1 μg) or with OPLS […]. […]

Data set [3] has as its system anti-FVIII antibody titers. Description: FVIII-specific tolerance with OPLS, OPDS or Dex, rechallenge with free FVIII (FIG. 11). Particulars: s.c. co-administration with FVIII, then s.c. free FVIII.
The test system of a further data set is anti-FVIII titers. Description: Tolerance induction and FVIII re-challenge study (FVIII, FVIII plus OPLS, FVIII plus Dexamethasone). The note with it: co-administered sc with 1 μg FVIII, 4 weekly. Type of data set: in vivo, HA mice. The procedure:
Tolerance induction studies in HA mice: Breeding pairs of exon 16 knockout transgenic hemophilic mice (HA) were used. All animal studies were conducted in accordance with an approved protocol by the Institutional Animal Use and Care Committee at the University at Buffalo, State University of New York.
Immunization and re-challenge schedule: To delineate whether OPLS mediated reduction of antibody titer is due to immune tolerance or immune suppression, we performed re-challenge experiments. Forty HA mice were pre-treated with FVIII, FVIII plus OPLS or FVIII plus Dexamethasone once-a-week for four consecutive weeks by sc injections of endotoxin free formulation of 1 μg of FVIII alone or with 5 mg OPLS or 200 ng Dexamethasone (Dex) as shown in FIG. 32. The injections were prepared in TRIS buffers containing 25 mM TRIS and 150 mM NaCl at pH 7.5. For OPLS containing formulations, OPLS was added to the buffer and the pH adjusted to 7.5. The appropriate amount of FVIII was added immediately before injection to prevent complexation between FVIII and OPLS pre-injection. […] Total anti-FVIII titer levels were measured by ELISA.
Statistics: Non-parametric one-way ANOVA with Tukey's post hoc analysis was used for the analysis of titer values where appropriate. Student t-test was used for comparing mean intensity of fluorescence (MIF) for flow cytomerty data. […]

Data set [4] can be described thus: Plasma chemistry markers after 28 daily injections of OPLS. Type of data set: in vivo, CD-1 mice. Particulars: up to highest dose, 1 day after dosing. An excerpt:
FIG. 21. Effect of 28 daily injections of a range of OPLS doses on plasma chemistry markers of CD-1 mice. Samples were collected from animals 1 day after the termination of dosing.

We go through one molecule from US20220016241A1, “COMPOSITIONS AND METHODS FOR REDUCING ANTIGEN-SPECIFIC IMMUNOGENICITY” (The Research Foundation for The State University of New York, priority 2013, published 2022).

By Kd is commonly meant a measure of binding affinity in units of concentration.

T1 sequence (P01012 whole entry): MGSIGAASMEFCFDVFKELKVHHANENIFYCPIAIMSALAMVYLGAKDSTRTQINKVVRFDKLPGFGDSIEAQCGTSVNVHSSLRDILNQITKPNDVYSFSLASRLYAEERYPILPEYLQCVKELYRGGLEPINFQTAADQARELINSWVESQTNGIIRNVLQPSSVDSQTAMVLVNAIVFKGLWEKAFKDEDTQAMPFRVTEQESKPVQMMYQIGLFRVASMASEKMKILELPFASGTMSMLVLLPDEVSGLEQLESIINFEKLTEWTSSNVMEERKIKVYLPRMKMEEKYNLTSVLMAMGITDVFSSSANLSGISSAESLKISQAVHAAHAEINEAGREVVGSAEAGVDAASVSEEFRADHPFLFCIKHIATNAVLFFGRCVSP

Take `N[C@@H](COP(=O)(O)O)C(=O)O` [OPLS, O-Phospho-L-Serine]: the “Impact on renal and hepatic function (plasma chemistry markers)” value in data set [1] and in data set [4] was “no impact” throughout. The equilibrium dissociation constant (Kd) on OVA (fluorescence titration, FIG. 2, read-out: Dissociation constant (Kd) of OPLS binding to OVA) worked out at 2570 µM. In addition, on OVA (spectroscopic titration), the “Binding affinity of OVA for OPLS” value is listed as “lowest affinity”. For the same molecule, the “Plasma creatine kinase activity vs vehicle” value in data set [2] is “No statistical significance”. For the same molecule, the “Injection site pathology at necropsy” value in data set [2] (macroscopic evaluation) is on record as “No visible injection site pathology”. The “Total anti-FVIII titers after rechallenge vs free FVIII” value in the data set with anti-FVIII total titers was “significantly lower”. For the same molecule, the “Anti-IgG antibody titers vs IgG alone” value with anti-IgG antibody titers is recorded as “lower”. The “FVIII-specific hypo-responsiveness upon rechallenge” value in data set [3] is recorded as “hypo-responsiveness”. For the same molecule, the “Anti-FVIII antibody response during the pre-treatment stage” value in the data set with anti-FVIII titers is on record as “reduced”.
